The values that follow come from ChEMBL document CHEMBL4828747, “Structure-Activity Relationships of Withanolides as Antiproliferative Agents for Multiple Myeloma: Comparison of Activity in 2D Models and a 3D Coculture Model” (J Nat Prod, 2021).

pIC50: −log10 of the molar value. Bounds are passed on as bounds.

In general, pIC50 refers to −log10 of the IC50, conventionally taken in molar units.

Holding throughout (type): functional, cell-based
Test [1] has as its system RPMI-8226. Put plainly: Antiproliferative activity against human RPMI-8226 cells cultured as 3D-spheroids assessed as reduction in cell viability after 48 hrs by Celltiter-Glo assay. The following applies: RPMI-8226, 48 h. A general note: Cellular ATP, detected with luciferase, serves as a proxy for viable cell number.
Test [2] can be described thus: Antiproliferative activity against human MM1.R cells assessed as reduction in cell viability incubated for 72 hrs by XTT assay. The conditions noted are these: MM.1R. A general note: Tetrazolium dyes change colour on reduction, which living cells bring about.
Test [3] concerns RPMI-8226. Put plainly: Antiproliferative activity against human RPMI 8226 cells assessed as reduction in cell viability incubated for 72 hrs by XTT assay. The following applies: RPMI-8226, 72 h.
Another test concerns MM1.S. Put plainly: Antiproliferative activity against human MM1.S cells assessed as reduction in cell viability incubated for 72 hrs by XTT assay.

Take `CC(=O)OCC1=C(C)C[C@H]([C@@H](C)[C@H]2CC[C@H]3[C@@H]4C[C@H]5O[C@]56[C@@H](O)C=CC(=O)[C@]6(C)[C@H]4CC[C@]23C)OC1=O`: the pIC50 in the test with RPMI-8226 [1] is 5.82; in test [2], 6.97; with RPMI-8226 [3], 6.67; in the test on MM1.S it was 6.94.

With `CC(=O)O[C@H]1C=CC(=O)[C@]2(C)[C@H]3CC[C@]4(C)[C@@H]([C@H](C)[C@H]5CC(C)=C(CO)C(=O)O5)CC[C@H]4[C@@H]3C[C@H]3O[C@]132`, the negative logarithm of the IC50 (pIC50) with RPMI-8226 [1] was 5.86; in test [2], 6.89; in the test with RPMI-8226 [3], 6.69; in the test with MM1.S, 7.01.

For `CC(=O)OCC1=C(C)C[C@H]([C@@H](C)[C@H]2CC[C@H]3[C@@H]4C[C@H]5O[C@]56C(=O)C=CC(=O)[C@]6(C)[C@H]4CC[C@]23C)OC1=O`, in the test on RPMI-8226 [3], the pIC50 is 6.11.

As for `CC1=C(C)C(=O)O[C@@H]([C@](C)(O)[C@H]2CC[C@H]3[C@@H]4C[C@H]5O[C@]56C(=O)C=CC(=O)[C@]6(C)[C@H]4CC[C@]23C)C1`, the pIC50 was < 4.40 in the test on RPMI-8226 [1], 6.07 in test [2], 6.56 in the test with RPMI-8226 [3] and 6.12 in the test with MM1.S.

Take `CC1=C(CO)C(=O)O[C@@H]([C@@H](C)[C@H]2CC[C@H]3[C@@H]4C[C@H](I)[C@]5(O)[C@@H](O)C=CC(=O)[C@]5(C)[C@H]4CC[C@]23C)C1`: the pIC50 in the test with RPMI-8226 [3] was 6.05.

Consider `C[C@H]1C[C@H]([C@](C)(O)[C@H]2[C@@H](O)C[C@H]3[C@@H]4C[C@H]5O[C@]56[C@@H](O)C=CC(=O)[C@]6(C)[C@H]4CC[C@]23C)OC(=O)[C@@H]1C`, for which the pIC50 in the test with RPMI-8226 [1] was 5.49; in test [2] it was 6.37; in the test with RPMI-8226 [3], 6.56; in the test on MM1.S, 6.21.

On to `CC1=C(CO)C(=O)O[C@@H]([C@@H](C)[C@H]2CC[C@H]3[C@@H]4C[C@H]5O[C@]56[C@@H](O)[C@@H](OS(=O)(=O)O)CC(=O)[C@]6(C)[C@H]4CC[C@]23C)C1`, for which the pIC50 in the test with RPMI-8226 [1] is 5.07; in test [2], 6.89; in the test on RPMI-8226 [3], 6.66; in the test with MM1.S, 6.94.

As for `CC(=O)OCC1=C(C)C[C@H]([C@@H](C)[C@H]2CC[C@H]3[C@@H]4CC=C5C(=O)C=CC(=O)[C@]5(C)[C@H]4CC[C@]23C)OC1=O`, the negative logarithm of the IC50 (pIC50) in the test on RPMI-8226 [1] was 5.00; in test [2], 6.63; in the test on RPMI-8226 [3], 6.34; with MM1.S it was 6.61.

As for `CC(=O)O[C@H]1C=CC(=O)[C@]2(C)[C@H]3CC[C@]4(C)[C@@H]([C@@](C)(O)[C@H]5CC(C)=C(C)C(=O)O5)CC[C@H]4[C@@H]3C[C@H]3O[C@]132`, the pIC50 was 6.09 in the test on RPMI-8226 [1], 6.46 in test [2], 6.60 in the test with RPMI-8226 [3] and 6.69 with MM1.S.

Turning to `CC1=C(C)C(=O)O[C@@H]([C@](C)(O)[C@H]2CC[C@H]3[C@@H]4C[C@H]5O[C@]56C(O)C=CC(=O)[C@]6(C)[C@H]4CC[C@]23C)C1` (stereo partly drawn), the pIC50 with RPMI-8226 [1] was 5.80; in test [2], 6.43; in the test on RPMI-8226 [3], 6.53; with MM1.S it was 6.36.

Consider `CC1=C(CO)C(=O)O[C@@H]([C@@H](C)[C@H]2CC[C@H]3[C@@H]4C[C@H]5O[C@]56[C@@H](O)[C@@H](N5CCCCC5)CC(=O)[C@]6(C)[C@H]4CC[C@]23C)C1`, for which the pIC50 in the test with RPMI-8226 [1] was 5.73; in test [2], 7.10; in the test with RPMI-8226 [3], 6.32; with MM1.S, 7.26.

Turning to `CC(=O)OCC1=C(C)C[C@H]([C@@H](C)[C@H]2CC[C@H]3[C@@H]4CC=C5C(=O)C=C[C@@H](OC(C)=O)[C@]5(C)[C@H]4CC[C@]23C)OC1=O`, the pIC50 in the test with RPMI-8226 [3] was 6.03.

As for `CC1=C(C)C(=O)O[C@@H]([C@](C)(O)[C@H]2CC[C@H]3[C@@H]4C[C@H]5O[C@]56CC=CC(=O)[C@]6(C)[C@H]4CC[C@]23C)C1`, the pIC50 in the test on RPMI-8226 [3] was 6.13.

For `CC1=C(C)C(=O)O[C@@H]([C@](C)(O)[C@H]2CC[C@H]3[C@@H]4CC=C5C(=O)C=CC(=O)[C@]5(C)[C@H]4CC[C@]23C)C1`, the pIC50 with RPMI-8226 [3] was 6.11.

As for `CC1=C(C)C(=O)O[C@@H]([C@](C)(O)[C@H]2CC[C@H]3[C@@H]4C[C@H](I)[C@]5(O)C(=O)C=CC(=O)[C@]5(C)[C@H]4CC[C@]23C)C1`, the pIC50 in the test on RPMI-8226 [3] is 6.02.

Turning to `CC(=O)OCC1=C(C)C[C@H]([C@@H](C)[C@H]2CC[C@H]3[C@@H]4CC=C5C(O)C=CC(=O)[C@]5(C)[C@H]4CC[C@]23C)OC1=O` (stereo partly drawn), in the test on RPMI-8226 [3], the pIC50 is 6.11.

Regarding `CC(=O)O[C@@H]1C=CC(=O)[C@]2(C)[C@H]3CC[C@]4(C)[C@@H]([C@@](C)(O)[C@H]5CC(C)=C(C)C(=O)O5)CC[C@H]4[C@@H]3C[C@H]3O[C@]132`, the pIC50 in the test on RPMI-8226 [1] was 5.79; in test [2] it was 6.28; in the test with RPMI-8226 [3], 6.52; in the test with MM1.S, 6.22.

Take `CC1=C(C)C(=O)O[C@@H]([C@](C)(O)[C@H]2CC[C@H]3[C@@H]4C[C@H](I)[C@]5(O)[C@@H](O)C=CC(=O)[C@]5(C)[C@H]4CC[C@]23C)C1`: the negative logarithm of the IC50 (pIC50) in the test on RPMI-8226 [3] is 6.26.

In the case of `CC(=O)OCC1=C(C)C[C@H]([C@@H](C)[C@H]2CC[C@H]3[C@@H]4C[C@H]5O[C@]56[C@@H](O)[C@@H](OC(C)=O)CC(=O)[C@]6(C)[C@H]4CC[C@]23C)OC1=O`, the pIC50 with RPMI-8226 [1] was < 4.40; in test [2] it was 6.43; with RPMI-8226 [3], 6.60; in the test on MM1.S, 6.64.

Take `CC1=C(C)C(=O)O[C@@H]([C@](C)(O)[C@H]2[C@@H](O)C[C@H]3[C@@H]4C[C@H](I)[C@]5(O)[C@@H](O)C=CC(=O)[C@]5(C)[C@H]4CC[C@]23C)C1`: in the test with RPMI-8226 [3], the pIC50 was 6.22.

As to `CC(=O)O[C@H]1C=CC(=O)[C@]2(C)[C@H]3CC[C@@]4(C)[C@H]([C@@H]3C[C@H]3O[C@]132)[C@H](OC(C)=O)C[C@@H]4[C@@](C)(O)[C@H]1CC(C)=C(C)C(=O)O1`, the pIC50 in the test on RPMI-8226 [1] is 5.47; in test [2], 6.49; with RPMI-8226 [3] it was 6.66; in the test on MM1.S, 6.43.

Take `CC1=C(CO)C(=O)O[C@@H]([C@@H](C)[C@H]2CC[C@H]3[C@@H]4C[C@H]5O[C@]56[C@@H](O)[C@@H](n5ccnc5)CC(=O)[C@]6(C)[C@H]4CC[C@]23C)C1`: the negative logarithm of the IC50 (pIC50) was 5.58 with RPMI-8226 [1], 7.12 in test [2], 6.57 with RPMI-8226 [3] and 7.22 with MM1.S.

`CC1=C(C)C(=O)O[C@@H]([C@](C)(O)[C@H]2CC[C@H]3[C@@H]4CC=C5[C@H](O)C=CC(=O)[C@]5(C)[C@H]4CC[C@]23C)C1`: the pIC50 in the test on RPMI-8226 [3] was 6.11.

For the compound `C[C@H]1[C@H]([C@@H](O)[C@](C)(O)[C@H]2[C@@H](O)C[C@H]3[C@@H]4C[C@H]5O[C@]56[C@@H](O)C=CC(=O)[C@]6(C)[C@H]4CC[C@]23C)OC(=O)[C@@H]1C`, the pIC50 with RPMI-8226 [3] is 6.22.
